Measurements from ChEMBL document CHEMBL5143723, “Orally Bioavailable Enzymatic Inhibitor of CD38, MK-0159, Protects against Ischemia/Reperfusion Injury in the Murine Heart” (J Med Chem, 2022).

Key:
[1] = Drug exposure in mouse plasma assessed as AUC of drug at 3 mg/kg, po; format: ADME, organism-based; parameters: dose 3 mg/kg, route po
[2] = biological target: T1, ADP-ribosyl cyclase/cyclic ADP-ribose hydrolase 1 (Homo sapiens, UniProt P28907)
T1 sequence (P28907 whole entry): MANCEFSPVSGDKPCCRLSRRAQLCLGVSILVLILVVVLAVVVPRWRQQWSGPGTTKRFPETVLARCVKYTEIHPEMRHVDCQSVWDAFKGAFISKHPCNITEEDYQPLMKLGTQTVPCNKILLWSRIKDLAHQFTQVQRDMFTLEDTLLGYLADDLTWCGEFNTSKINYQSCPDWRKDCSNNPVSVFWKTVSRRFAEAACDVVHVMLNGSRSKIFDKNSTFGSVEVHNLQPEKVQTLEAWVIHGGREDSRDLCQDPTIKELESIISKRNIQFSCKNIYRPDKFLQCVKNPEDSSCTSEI
Description: Inhibition of human his tagged CD38 using N6-etheno-NAD as substrate by fluorescence microplate reader assay

COCCO[C@H]1CC[C@H](NC(=O)c2cc(-c3cncs3)cc3[nH]cc(C#N)c23)CC1
AUC [1]: 75 ng·h/mL

COCCO[C@H]1CC[C@H](NC(=O)c2cc(-n3ccnc3)cc3cn[nH]c23)CC1
AUC [1]: 207 ng·h/mL

COCCO[C@H]1CC[C@H](NC(=O)c2cc(-c3cscn3)cc3cc[nH]c23)CC1
IC50 [2]: > 100 µM

COCCO[C@H]1CC[C@H](NC(=O)c2cc(-c3cncs3)cn3cnnc23)CC1
IC50 [2]: > 100 µM

COCCO[C@H]1CC[C@H](NC(=O)c2cc(-c3cncs3)cc3cc[nH]c23)CC1
AUC [1]: 7380 ng·h/mL

COCCO[C@H]1CC[C@H](NC(=O)c2cc(-c3cncs3)nc3cc[nH]c23)CC1
AUC [1]: 6820 ng·h/mL

COCCO[C@H]1CC[C@H](NC(=O)c2cc(-c3ccccn3)cc3cc[nH]c23)CC1
IC50 [2]: > 100 µM

COCCO[C@H]1CC[C@H](NC(=O)c2cc(-c3cncs3)c(F)c3[nH]ccc23)CC1
AUC [1]: 5110 ng·h/mL
